{"source": "patent US20060094719A1", "about": "“Tetralin histamine-3 receptor antagonists” (Pfizer Inc, priority 2004, published 2006)", "key": {"[1]": {"biological_target": "T1, rat histamine H3 receptors (Rattus norvegicus, UniProt Q9QYN8)", "T1 construct": "Frozen rat frontal brain or frozen human post-mortem frontal brain is homogenized; from tissue; host or cells: rat frontal brain membranes", "T1 sequence (Q9QYN8 whole entry)": "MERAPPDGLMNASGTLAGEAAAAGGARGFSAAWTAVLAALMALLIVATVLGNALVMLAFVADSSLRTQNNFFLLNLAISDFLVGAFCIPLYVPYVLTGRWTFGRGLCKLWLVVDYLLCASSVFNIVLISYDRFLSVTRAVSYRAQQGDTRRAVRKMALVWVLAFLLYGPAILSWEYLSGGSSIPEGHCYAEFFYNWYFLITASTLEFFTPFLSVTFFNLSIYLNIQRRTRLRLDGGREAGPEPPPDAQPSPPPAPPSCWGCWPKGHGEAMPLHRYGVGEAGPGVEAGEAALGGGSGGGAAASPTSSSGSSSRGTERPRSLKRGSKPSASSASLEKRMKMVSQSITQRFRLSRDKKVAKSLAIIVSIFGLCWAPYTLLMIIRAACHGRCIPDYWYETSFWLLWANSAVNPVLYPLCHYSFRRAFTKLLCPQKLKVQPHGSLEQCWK", "assay": "Rat H3 binding, 3H-N-methylhistamine displacement in frontal brain membranes", "details": "radioligand 1 nM 3H-N-methylhistamine, 1-hour incubation", "method": "The in vitro affinity of the compounds in the present invention at the rat or human histamine H3 receptors can be determined according to the following procedure. Frozen rat frontal brain or frozen human post-mortem frontal brain is homogenized in 20 volumes of cold 50 mM Tris.HCl containing 2 mM MgCl2 (pH to 7.4 at 4° C.). The homogenate is then centrifuged at 45,000 G for 10 minutes. The supernatant is decanted and the membrane pellet re-suspended by Polytron in cold 50 mM Tris.HCl containing 2 mM MgCl2 (pH to 7.4 at 4 degrees C.) and centrifuged again. The final pellet is re-suspended in 50 mM Tris HCl containing 2 mM MgCl2 (pH to 7.4 at 25 degrees C.) at a concentration of 12 mg/mL. Dilutions of compounds are made in 10% DMSO/50 mM Tris buffer (pH 7.4) (at 10×final concentration, so that the final DMSO concentration is 1%). Incubations are initiated by the addition of membranes (200 microliters) to 96-well V-bottom polypropylene plates containing 25 microliters of drug dilutions and 25 microliters of radioligand (1 nM final concentration ^3H-N-methylhistamine). After a 1-hour incubation, assay samples are rapidly filtered through Whatman GF/B filters and rinsed with ice-cold 50 mM Tris buffer (pH 7.4) using a Skatron cell harvester. Radioactivity is quantified using a BetaPlate scintillation counter."}}}
{"smiles": "c1cc2c(cc1OCCCN1CCCCC1)CCC(CN1CCCC1)C2", "note": "(racemic) [3 (±), (±)-1-[3-(6-Pyrrolidin-1-ylmethyl-5,6,7,8-tetrahydro-naphthalen-2-yloxy)-propyl]-piperidine]", "values": [{"measurement": "Ki", "setting": "[1]", "value": 8.4, "unit": "nM"}, {"measurement": "melting point", "value": "180 to 181.4", "unit": "°C"}]}
{"smiles": "CN(CCCOc1ccc2c(c1)CCC(CN1CCCC1)C2)Cc1ccco1", "note": "(single isomer, unassigned; (-)) [55 (−), (−)-Furan-2-ylmethyl-[3-(6-pyrrolidin-1-ylmethyl-5,6,7,8-tetrahydro-naphthalen-2-yloxy)-propyl]-methylamine]", "values": [{"measurement": "Ki", "setting": "[1]", "value": 4.5, "unit": "nM"}]}
{"smiles": "CC1CCCN(CCCOc2ccc3c(c2)CCC(CN2CCCC2)C3)C1", "note": "(single isomer, unassigned; (+)) [40 (+), (+)-3-Methyl-1-[3-(6-pyrrolidin-1-ylmethyl-5,6,7,8-tetrahydro-naphthalen-2-yloxy)-propyl]-piperidine]", "values": [{"measurement": "Ki", "setting": "[1]", "value": 8.4, "unit": "nM"}]}
{"smiles": "Cl.c1cc2c(cc1OCCCNC1CCC3(CCCCC3)CC1)CCC(CN1CCCC1)C2", "note": "(single isomer, unassigned; (-)) [16 (−), (−)-[3-(6-Pyrrolidin-1-ylmethyl-5,6,7,8-tetrahydro-naphthalen-2-yloxy)-propyl]-spiro[5.5]undec-3-ylamine hydrochloride]", "values": [{"measurement": "Ki", "setting": "[1]", "value": 7.2, "unit": "nM"}, {"measurement": "melting point", "value": "291.5 to 292.9", "unit": "°C"}]}
{"smiles": "Cl.c1cc2c(cc1OCCCN1CCOCC1)CCC(CN1CCCC1)C2", "note": "(stereo not drawn) [14]", "values": [{"measurement": "melting point", "value": "249.6 to 250.4", "unit": "°C"}]}
{"smiles": "CN(C)CCCOc1ccc2c(c1)CCC(CN1CCCC1)C2.Cl", "note": "(stereo not drawn) [13]", "values": [{"measurement": "melting point", "value": "230.6 to 232.8", "unit": "°C"}]}
{"smiles": "Cl.c1cc2c(cc1OCCCN1CCCCC1)CCC(CN1CCCC1)C2", "note": "(stereo not drawn) [12]", "values": [{"measurement": "melting point", "value": "256.6 to 258.4", "unit": "°C"}]}
{"smiles": "Cl.c1cc2c(cc1OCCCN1CCOCC1)CCC(CN1CCCC1)C2", "note": "(stereo not drawn) [11]", "values": [{"measurement": "melting point", "value": "281.8 to 282.7", "unit": "°C"}]}
{"smiles": "Clc1ccc(CNCCCOc2ccc3c(c2)CCC(CN2CCCC2)C3)cc1Cl", "note": "(single isomer, unassigned; (-)) [27 (−), (−)-(3,4-Dichlorobenzyl)-[3-(6-pyrrolidin-1-ylmethyl-5,6,7,8-tetrahydro-naphthalen-2-yloxy)-propyl]-amine]", "values": [{"measurement": "Ki", "setting": "[1]", "value": 1.58, "unit": "nM"}]}
{"smiles": "c1ccc(CNCCCOc2ccc3c(c2)CCC(CN2CCCC2)C3)cc1", "note": "(single isomer, unassigned; (-)) [28 (−), (−)-Benzyl-[3-(6-pyrrolidin-1-ylmethyl-5,6,7,8-tetrahydro-naphthalen-2-yloxy)-propyl]-amine]", "values": [{"measurement": "Ki", "setting": "[1]", "value": 4.7, "unit": "nM"}]}
{"smiles": "c1cc2c(cc1OCCCN1CC3CCCC1C3)CCC(CN1CCCC1)C2", "note": "(single isomer, unassigned; (-)) [65 (−), (−)-6-[3-(6-Pyrrolidin-1-ylmethyl-5,6,7,8-tetrahydro-naphthalen-2-yloxy)-propyl]-6-azabicyclo-[3.2.1]octane]", "values": [{"measurement": "Ki", "setting": "[1]", "value": 2.11, "unit": "nM"}]}
{"smiles": "CC1CCCN(CCCOc2ccc3c(c2)CCC(CN2CCCC2)C3)C1", "note": "(single isomer, unassigned; (-)) [40 (−), (−)-3-Methyl-1-[3-(6-pyrrolidin-1-ylmethyl-5,6,7,8-tetrahydro-naphthalen-2-yloxy)-propyl]-piperidine]", "values": [{"measurement": "Ki", "setting": "[1]", "value": 3.54, "unit": "nM"}]}
{"smiles": "Cl.c1cc2c(cc1OCCCN1CCOCC1)CCC(CN1CCCC1)C2", "note": "(stereo not drawn) [5]", "values": [{"measurement": "melting point", "value": "255.4 to 256.4", "unit": "°C"}]}
{"smiles": "CN(C)CCOc1ccc2c(c1)CCC(CN1CCCC1)C2.Cl", "note": "(racemic)", "values": [{"measurement": "melting point", "value": "131.6 to 132.8", "unit": "°C"}]}
{"smiles": "CC(CN1CCOCC1)NCCCOc1ccc2c(c1)CCC(CN1CCCC1)C2", "note": "(single isomer, unassigned; (-)) [51 (−), (−)-(1-Methyl-2-morpholin-4-ylethyl)-[3-(6-pyrrolidin-1-ylmethyl-5,6,7,8-tetrahydro-naphthalen-2-yloxy)-propyl]-amine]", "values": [{"measurement": "Ki", "setting": "[1]", "value": 6.2, "unit": "nM"}]}
{"smiles": "Cl.c1cc2c(cc1OCCCN1CCCCC1)CCC(CN1CCCC1)C2", "note": "(single isomer, unassigned; (-)) [10 (−), (−)-1-[3-(6-Pyrrolidin-1-ylmethyl-5,6,7,8-tetrahydro-naphthalen-2-yloxy)-propyl]-piperidine hydrochloride]", "values": [{"measurement": "Ki", "setting": "[1]", "value": 1.1, "unit": "nM"}, {"measurement": "melting point", "value": "286.6 to 286.8", "unit": "°C"}]}
{"smiles": "CC1CCN(CCCOc2ccc3c(c2)CCC(CN2CCCC2)C3)CC1", "note": "(single isomer, unassigned; (-)) [42 (−), (−)-4-Methyl-1-[3-(6-pyrrolidin-1-ylmethyl-5,6,7,8-tetrahydro-naphthalen-2-yloxy)-propyl]-piperidine]", "values": [{"measurement": "Ki", "setting": "[1]", "value": 4.32, "unit": "nM"}]}
{"smiles": "c1cc2c(cc1OCCCNC1CCCCC1)CCC(CN1CCCC1)C2", "note": "(single isomer, unassigned; (-)) [64 (−), (−)-[3-(6-pyrrolidin-1-ylmethyl-5,6,7,8-tetrahydro-naphthalen-2-yloxy)-propyl]-cyclohexyl-amine]", "values": [{"measurement": "Ki", "setting": "[1]", "value": 4.36, "unit": "nM"}]}
{"smiles": "Cl.NC(=O)C1CCN(CCCOc2ccc3c(c2)CCC(CN2CCCC2)C3)CC1", "note": "(racemic)", "values": [{"measurement": "melting point", "value": "211 to 213", "unit": "°C"}]}
{"smiles": "NC(=O)C1CCCN(CCCOc2ccc3c(c2)CCC(CN2CCCC2)C3)C1", "note": "(racemic) [Example 9, (±)-1-[3-(6-Pyrrolidin-1-ylmethyl-5,6,7,8-tetrahydro-naphthalen-2-yloxy)-propyl]-piperidine-3-carboxylic acid amide]", "values": [{"measurement": "melting point", "value": "102 to 103.2", "unit": "°C"}]}
{"smiles": "Fc1ccc(C2CCCN2CCCOc2ccc3c(c2)CCC(CN2CCCC2)C3)cc1", "note": "(single isomer, unassigned; (+)) [71 (+), (+)-2-(4-Fluorophenyl)-1-[3-(6-pyrrolidin-1-ylmethyl-5,6,7-8-tetrahydro-naphthalen-2-yloxy)-propyl]-pyrrolidine]", "values": [{"measurement": "Ki", "setting": "[1]", "value": 9.6, "unit": "nM"}]}
{"smiles": "Cl.c1cc2c(cc1OCCCN1CCCC1)CCC(CN1CCCC1)C2", "note": "(racemic) [6 (±), (±)-1-[3-(6-Pyrrolidin-1-ylmethyl-5,6,7,8-tetrahydro-naphthalen-2-yloxy)-propyl]-pyrrolidine hydrochloride]", "values": [{"measurement": "Ki", "setting": "[1]", "value": 9, "unit": "nM"}, {"measurement": "melting point", "value": "149.4 to 150.5", "unit": "°C"}]}
{"smiles": "Clc1ccc(CNCCCOc2ccc3c(c2)CCC(CN2CCCC2)C3)c(Cl)c1", "note": "(single isomer, unassigned; (-)) [79 (−), (−)-(2,4-Dichlorobenzyl)-[3-(6-pyrrolidin-1-ylmethyl-5,6,7,8-tetrahydro-naphthalen-2-yloxy)-propyl]-amine]", "values": [{"measurement": "Ki", "setting": "[1]", "value": 1.9, "unit": "nM"}]}
{"smiles": "Cl.c1cc2c(cc1OCCCNC1CC3CCC1C3)CCC(CN1CCCC1)C2", "note": "(stereo not drawn)", "values": [{"measurement": "melting point", "value": "265.4 to 266.3", "unit": "°C"}]}
{"smiles": "Cl.Cl.c1cc2c(cc1OCCN1CCCCC1)CCC(CN1CCCC1)C2", "note": "(single isomer, unassigned; (-)) [92 (−), (−)-1-[2-(6-Pyrrolidin-1-ylmethyl-5,6,7,8-tetrahydro-naphthalen-2-yloxy)-ethyl]-piperidine dihydrochloride]", "values": [{"measurement": "Ki", "setting": "[1]", "value": 11.3, "unit": "nM"}, {"measurement": "melting point", "value": "265.5 to 266.8", "unit": "°C"}]}
{"smiles": "Clc1ccc(CNCCCOc2ccc3c(c2)CCC(CN2CCCC2)C3)cc1", "note": "(single isomer, unassigned; (-)) [24 (−), (−)-(4-Chlorobenzyl)-[3-(6-pyrrolidin-1-ylmethyl-5,6,7,8-tetrahydro-naphthalen-2-yloxy)-propyl]-amine]", "values": [{"measurement": "Ki", "setting": "[1]", "value": 0.84, "unit": "nM"}]}
{"smiles": "Cl.c1cc2c(cc1OCCCN1CCC3(CCCCC3)CC1)CCC(CN1CCCC1)C2", "note": "(stereo not drawn)", "values": [{"measurement": "melting point", "value": "287.6 to 290.2", "unit": "°C"}]}
{"smiles": "Fc1ccc(CNCCCOc2ccc3c(c2)CCC(CN2CCCC2)C3)cc1", "note": "(single isomer, unassigned; (-)) [32 (−), (−)-(4-Fluorobenzyl)-[3-(6-pyrrolidin-1-ylmethyl-5,6,7,8-tetrahydro-naphthalen-2-yloxy)-propyl]-amine]", "values": [{"measurement": "Ki", "setting": "[1]", "value": 1.25, "unit": "nM"}]}
{"smiles": "Fc1ccc(CNCCCOc2ccc3c(c2)CCC(CN2CCCC2)C3)cc1F", "note": "(single isomer, unassigned; (-)) [77 (−), (−)-(3,4-Difluorobenzyl)-[3-(6-pyrrolidin-1-ylmethyl-5,6,7,8-tetrahydro-naphthalen-2-yloxy)-propyl]-amine]", "values": [{"measurement": "Ki", "setting": "[1]", "value": 1.95, "unit": "nM"}]}
{"smiles": "CC1CC(C)CN(CCCOc2ccc3c(c2)CCC(CN2CCCC2)C3)C1", "note": "(single isomer, unassigned; (-)) [81 (−), (−)-3,5-Dimethyl-1-[3-(6-pyrrolidin-1-ylmethyl-5,6,7,8-tetrahydro-naphthalen-2-yloxy)-propyl]-piperidine]", "values": [{"measurement": "Ki", "setting": "[1]", "value": 9.14, "unit": "nM"}]}
{"smiles": "CC1(C)CCCN(CCCOc2ccc3c(c2)CCC(CN2CCCC2)C3)C1.Cl", "note": "(single isomer, unassigned; (-)) [15 (−), (−)-3,3-Dimethyl-1-[3-(6-pyrrolidin-1-ylmethyl-5,6,7,8-tetrahydro-naphthalen-2-yloxy)-propyl]-piperidine hydrochloride]", "values": [{"measurement": "Ki", "setting": "[1]", "value": 5, "unit": "nM"}, {"measurement": "melting point", "value": "202 to 204", "unit": "°C"}]}
{"smiles": "Cl.c1cc2c(cc1OCCCN1CCOCC1)CCC(CN1CCCC1)C2", "note": "(racemic) [4]", "values": [{"measurement": "melting point", "value": "259.9 to 261.4", "unit": "°C"}]}
{"smiles": "CC1CCCCN1CCCOc1ccc2c(c1)CCC(CN1CCCC1)C2", "note": "(single isomer, unassigned; (-)) [41 (−), (−)-2-Methyl-1-[3-(6-pyrrolidin-1-ylmethyl-5,6,7,8-tetrahydro-naphthalen-2-yloxy)-propyl]-piperidine]", "values": [{"measurement": "Ki", "setting": "[1]", "value": 5.89, "unit": "nM"}]}
{"smiles": "Cl.c1cc2c(cc1OCCCN1CCC(N3CCCCC3)CC1)CCC(CN1CCCC1)C2", "note": "(racemic) [7 (±), (±)-1′-[3-(6-Pyrrolidin-1-ylmethyl-5,6,7,8-tetrahydro-naphthalen-2-yloxy)-propyl]-[1,4′]bi-piperidinyl hydrochloride]", "values": [{"measurement": "Ki", "setting": "[1]", "value": 3, "unit": "nM"}, {"measurement": "melting point", "value": "284.8 °C (dec.)"}]}
{"smiles": "CN(C)CCCOc1ccc2c(c1)CCC(CN1CCCC1)C2.Cl", "note": "(racemic) [1]", "values": [{"measurement": "melting point", "value": "187.7 to 188.7", "unit": "°C"}]}
